Data as given in PubChem BioAssay (NCI).
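Exposure lasted 48 hours, with cells grown in 96-well plates and compounds tested at five concentrations. The concentration for 50% growth inhibition is given as GI50. TGI denotes the concentration required for complete inhibition of growth.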

Assays:
Test in all cases: inhibition of tumour cell growth, NCI panel, 48 h
ACHN renal = tested on: ACHN renal
A549 NSCLC = tested on: A549 NSCLC
SN12C renal = tested on: SN12C renal
UACC-62 melanoma = tested on: UACC-62 melanoma
HCT-116 colon = tested on: HCT-116 colon
SF-539 CNS = tested on: SF-539 CNS
HOP-62 NSCLC = tested on: HOP-62 NSCLC
OVCAR-4 ovarian = tested on: OVCAR-4 ovarian
786-0 renal = tested on: 786-0 renal
T-47D breast = tested on: T-47D breast
MDA-MB-435 = tested on: MDA-MB-435
KM12 colon = tested on: KM12 colon
RXF 393 renal = tested on: RXF 393 renal
NCI/ADR-RES ovarian = tested on: NCI/ADR-RES ovarian
EKVX NSCLC = tested on: EKVX NSCLC
MCF7 breast = tested on: MCF7 breast
MALME-3M melanoma = tested on: MALME-3M melanoma
NCI-H226 lung = tested on: NCI-H226 lung
LOX IMVI melanoma = tested on: LOX IMVI melanoma
PC-3 prostate = tested on: PC-3 prostate
K-562 leukemia = tested on: K-562 leukemia
MDA-MB-468 breast = tested on: MDA-MB-468 breast
TK-10 renal = tested on: TK-10 renal
HL-60(TB) leukemia = tested on: HL-60(TB) leukemia
SK-MEL-2 melanoma = tested on: SK-MEL-2 melanoma
NCI-H460 lung = tested on: NCI-H460 lung
BT-549 breast = tested on: BT-549 breast
CCRF-CEM leukemia = tested on: CCRF-CEM leukemia
SNB-19 CNS = tested on: SNB-19 CNS
MOLT-4 leukemia = tested on: MOLT-4 leukemia
OVCAR-5 ovarian = tested on: OVCAR-5 ovarian
RPMI-8226 leukemia = tested on: RPMI-8226 leukemia
IGROV1 ovarian = tested on: IGROV1 ovarian
HOP-92 NSCLC = tested on: HOP-92 NSCLC
M14 melanoma = tested on: M14 melanoma
A498 renal = tested on: A498 renal
HCT-15 colon = tested on: HCT-15 colon
HS 578T breast = tested on: HS 578T breast
CAKI-1 renal = tested on: CAKI-1 renal
SW-620 colon = tested on: SW-620 colon
SR leukemia = tested on: SR leukemia
OVCAR-8 ovarian = tested on: OVCAR-8 ovarian
SNB-75 CNS = tested on: SNB-75 CNS
SF-295 CNS = tested on: SF-295 CNS
SK-OV-3 ovarian = tested on: SK-OV-3 ovarian
COLO 205 colon = tested on: COLO 205 colon
MDA-MB-231 breast = tested on: MDA-MB-231 breast
OVCAR-3 ovarian = tested on: OVCAR-3 ovarian
HCC-2998 colon = tested on: HCC-2998 colon
UO-31 renal = tested on: UO-31 renal
HT29 colon = tested on: HT29 colon
U251 CNS = tested on: U251 CNS
UACC-257 melanoma = tested on: UACC-257 melanoma
SF-268 CNS = tested on: SF-268 CNS
DU-145 prostate = tested on: DU-145 prostate
NCI-H522 lung = tested on: NCI-H522 lung
NCI-H23 lung = tested on: NCI-H23 lung
SK-MEL-28 melanoma = tested on: SK-MEL-28 melanoma
SK-MEL-5 melanoma = tested on: SK-MEL-5 melanoma

## O=C1CCC(N2Cc3cc(CC(=O)Nc4ccc(N5CCCCC5)cc4)ccc3C2=O)C(=O)N1 (centres undefined)
ACHN renal
  GI50: > 100 µM
  TGI: > 100 µM
A549 NSCLC
  GI50: 24.2 µM
  TGI: > 100 µM
SN12C renal
  GI50: 0.632 µM
  TGI: > 90.8 µM
UACC-62 melanoma
  GI50: 36.3 µM
  TGI: > 100 µM
HCT-116 colon
  GI50: > 100 µM
  TGI: > 100 µM
SF-539 CNS
  GI50: 25.1 µM
  TGI: > 100 µM
HOP-62 NSCLC
  GI50: < 0.01 µM
OVCAR-4 ovarian
  GI50: 23.4 µM
  TGI: > 100 µM
786-0 renal
  GI50: 1.43 µM
  TGI: > 100 µM
T-47D breast
  GI50: < 0.01 µM
  TGI: > 100 µM
MDA-MB-435
  GI50: > 100 µM
  TGI: > 100 µM
KM12 colon
  GI50: 2.37 µM
  TGI: > 100 µM
RXF 393 renal
  GI50: 9.66 µM
  TGI: > 100 µM
NCI/ADR-RES ovarian
  GI50: 4.34 µM
  TGI: > 100 µM
EKVX NSCLC
  GI50: > 34.5 µM
  TGI: > 100 µM
MCF7 breast
  GI50: 12.4 µM
  TGI: > 100 µM
MALME-3M melanoma
  GI50: < 0.01 µM
  TGI: 0.0124 µM
NCI-H226 lung
  GI50: 0.0398 µM
  TGI: 23.3 µM
LOX IMVI melanoma
  GI50: > 100 µM
  TGI: > 100 µM
PC-3 prostate
  GI50: < 0.0108 µM
  TGI: > 100 µM
K-562 leukemia
  GI50: > 56.1 µM
  TGI: > 100 µM
MDA-MB-468 breast
  GI50: < 0.01 µM
  TGI: < 0.0282 µM
TK-10 renal
  GI50: 1.58 µM
  TGI: > 100 µM
HL-60(TB) leukemia
  GI50: < 0.01 µM
SK-MEL-2 melanoma
  GI50: 2.16 µM
  TGI: > 100 µM
NCI-H460 lung
  GI50: > 100 µM
  TGI: > 100 µM
BT-549 breast
  GI50: < 0.01 µM
  TGI: 0.927 µM
CCRF-CEM leukemia
  GI50: < 0.01 µM
SNB-19 CNS
  GI50: 0.0594 µM
  TGI: > 100 µM
MOLT-4 leukemia
  GI50: < 0.01 µM
  TGI: > 100 µM
OVCAR-5 ovarian
  GI50: 0.24 µM
  TGI: > 100 µM
RPMI-8226 leukemia
  GI50: 20.1 µM
  TGI: > 100 µM
IGROV1 ovarian
  GI50: < 0.0104 µM
  TGI: > 100 µM
HOP-92 NSCLC
  GI50: < 0.01 µM
  TGI: > 100 µM
M14 melanoma
  GI50: 0.432 µM
  TGI: > 100 µM
A498 renal
  GI50: 0.164 µM
  TGI: > 85.2 µM
HCT-15 colon
  GI50: 0.0368 µM
  TGI: > 100 µM
HS 578T breast
  GI50: < 0.0166 µM
  TGI: > 100 µM
CAKI-1 renal
  GI50: 2.06 µM
  TGI: > 100 µM
SW-620 colon
  GI50: < 0.0144 µM
  TGI: > 100 µM
SR leukemia
  GI50: > 100 µM
  TGI: > 100 µM
OVCAR-8 ovarian
  GI50: < 0.01 µM
  TGI: > 100 µM
SNB-75 CNS
  GI50: 0.0288 µM
  TGI: 99.2 µM
SF-295 CNS
  GI50: > 96.3 µM
  TGI: > 100 µM
SK-OV-3 ovarian
  GI50: 12.9 µM
  TGI: > 100 µM
COLO 205 colon
  GI50: 0.0118 µM
  TGI: > 100 µM
MDA-MB-231 breast
  GI50: < 0.01 µM
OVCAR-3 ovarian
  GI50: 23.2 µM
  TGI: > 100 µM
HCC-2998 colon
  GI50: 0.0174 µM
  TGI: > 100 µM
UO-31 renal
  GI50: 0.0782 µM
  TGI: > 100 µM
HT29 colon
  GI50: 19 µM
  TGI: > 100 µM
U251 CNS
  GI50: 46.8 µM
  TGI: > 100 µM
UACC-257 melanoma
  GI50: > 100 µM
  TGI: > 100 µM
SF-268 CNS
  GI50: 40.7 µM
  TGI: > 100 µM
DU-145 prostate
  GI50: > 81.6 µM
  TGI: > 100 µM
NCI-H522 lung
  GI50: > 72.9 µM
  TGI: > 100 µM
NCI-H23 lung
  GI50: > 100 µM
  TGI: > 100 µM
SK-MEL-28 melanoma
  GI50: > 60.4 µM
  TGI: > 100 µM
SK-MEL-5 melanoma
  GI50: 1.76 µM
  TGI: > 100 µM
